Test results published in PMC6214853, “Cytotoxic, tubulin-interfering and proapoptotic activities of 4′-methylthio-trans-stilbene derivatives, analogues of trans-resveratrol” (Cytotechnology, 2018).
Where “and” joins values, the source holds several entries; their conditions need not be identical. Equal values may be shown once.

Legend:
[1] = target: T1, purified porcine tubulin (Sus scrofa, UniProt P02554); experiment: Tubulin polymerization assay in vitro; type: biochemical; details: absorbance at steady state
T1 construct: purified porcine tubulin purchased from Cytoskeleton Inc; purchased Cytoskeleton Inc. (Denver, CO, USA)
Experimental: Tubulin polymerization was assessed with the use of purified porcine tubulin purchased from Cytoskeleton Inc. (Denver, CO, USA) in accordance with a protocol recommended by the manufacturer. Tubulin was dissolved in a buffer containing: 80 mM PIPES pH 6.9, 2 mM MgCl2, 0.5 mM EGTA and 1 mM GTP, at a final concentration of 3 mg/mL and placed in a 96-well plate (0.3 mg per well). The polymerization reaction was started by increasing temperature from 4 to 37 °C upon transfer of the reaction mixture to a pre-warmed plate. The assembly of microtubules was monitored spectrophotometrically by measuring absorbance at 350 nm for 60 min, at a temperature of 37 °C. Paclitaxel was used as stabilizing positive control.

[2] = tested on: HaCaT cells; experiment: MTT cell viability assay, HaCaT; type: cell-based; details: Homo sapiens, 48 h treatment
Experimental: (§1) Spontaneously immortalized human keratinocyte HaCaT cells were purchased from Cell Lines Service (CLS, Eppelheim, Germany). Human epidermoid carcinoma A431 cells were obtained from Deutsche Sammlung von Mikroorganismen und Zellkulturen (DSMZ, Braunschweig, Germany). MCF7 (ECACC 86012803) and MCF12A (ECACC10782) cells were purchased from the European Collection of Cell Cultures (Salisbury, Wiltshire, UK). MCF12A cells were cultured in 95% 1:1 mixture of DMEM and Ham’s F12 medium, 20 ng/mL human epidermal growth factor, 500 ng/mL hydrocortisone and 5% horse serum. The other cell lines were cultured in Dulbecco’s modified Eagle’s medium (DMEM) supplemented with 10% fetal bovine serum and 1% (v/v) antibiotics solution. Cells were incubated at 37 °C in an atmosphere consisting of 95% air and 5% CO2 in a humidified incubator until they reached 70% confluency. 1 × 10^6 cells were seeded in 40 mm ø culture dishes. After 24 h of preincubation in DMEM containing 5% of FBS, the cells were treated with resveratrol or its analogs, and the incubation was continued for a subsequent 24 h to assess apoptosis or cell cycle distribution. Then, the cells were harvested. Control cells were treated with DMSO, at a concentration of less than 0.1%.
(§2) The effect of resveratrol and 4′-methylthiostilbenes on cell viability was assessed with MTT assay according to the standard protocol described earlier (Zielińska-Przyjemska et al. [2015]). Briefly, the cells were seeded in 96-well plates at a density of 1 × 10^4 cells/well in 100 μL of growth medium. They were allowed to attach overnight and either resveratrol or the appropriate analog was then added to the culture medium at various concentrations (0–200 μM) for 48 h at 37 °C. The cells were subsequently incubated with MTT (0.5 mg/mL) solution for another 4 h. The water insoluble formazan crystals were solubilized in acidic isopropanol before the measurement of absorbance using a microplate reader (TECAN Infinite M200, TK Biotech, Warsaw, Poland) at 540 and 690 nm. All of the experiments were repeated three times, with at least three measurements per assay.

[3] = tested on: MCF7 cells; experiment: MTT cell viability assay, MCF7; type: cell-based, human; details: MCF7, 48 h treatment
Experimental: as §1, §2

[4] = tested on: A431 cells; experiment: MTT cell viability assay, A431; type: cell-based; details: Homo sapiens, A-431, A431, 48 h treatment
Experimental: as §1, §2

[5] = tested on: MCF7 cells; design: method as in Androutsopoulos et al. [2011]; details: 96 h exposure; ref Androutsopoulos et al. [2011]; cited from earlier work
[6] = tested on: tubulin; design: method as in Ma and coworkers ([2008]); details: ref Ma and coworkers ([2008]), cited from earlier work
[7] = tested on: MCF12A, MCF7, HaCaT and A431 cell lines; experiment: TUNEL assay; type: cell-based, human; details: 24 h incubation, versus control
Experimental: as §1
TUNEL assay was applied to detect apoptotic cells using In Situ Cell Death Detection Kit (Roche Diagnostics, Indianapolis, IN, USA). Briefly, after incubation with the test compounds for 24 h, the cells were detached with a 0.5% trypsin–EDTA solution and collected. Cell suspensions were fixed with 4% paraformaldehyde and permeabilized with 0.1% Triton X-100 in 0.1% sodium citrate. After the TUNEL reaction mixture was added, cells were incubated for 1 h at 37 °C in a humidified chamber and samples were analyzed by FACSCanto Flow Cytometer (Becton–Dickinson). Camptothecin at a final concentration of 50 nM was used as a positive control.

[8] = tested on: MCF12A cells; experiment: Flow cytometry cell cycle analysis, MCF12A; type: cell-based, human; details: 24 h incubation, PI flow cytometry
Experimental: as §1
(§3) The cells harvested after a 24 h incubation with the test compounds were washed with 1 mL of PBS and fixed with 70% ethanol. The ethanol was added dropwise to the cell pellet while vortexing to ensure fixation of all cells and minimizing clumping. After a 30 min incubation, the cells were washed twice in PBS, and 250 µL of a solution containing 50 µg/mL PI, 100 µg/mL RNase A (Sigma, St. Louis, MO, USA) in PBS was added to the pellet and incubated for 30 min at 37 °C in the dark. The stained cells were analyzed by FACSCanto Flow Cytometer (Becton–Dickinson). Camptothecin at a final concentration of 50 nM was used as a positive control. Data analysis and acquisition were performed using FACS Diva software (Becton–Dickinson).

[9] = tested on: MCF12A cells; experiment: MTT cell viability assay, MCF12A; type: cell-based; details: Homo sapiens, MCF-12A, 48 h treatment
Experimental: as §1, §2

[10] = tested on: MCF12A, MCF7, HaCaT and A431 cell lines; experiment: Annexin-V/propidium iodide assay; type: cell-based, human; details: 24 h incubation, all four cell lines
Experimental: as §1
Apoptosis and necrosis were detected using Annexin-V-FLUOS Staining Kit assay (Roche Diagnostics GmbH, Mannheim, Germany), according to the manufacturer’s instruction. After have been treated with test compounds for 24 h, the cells were transferred (1 × 10^6 cells in 100 µL of the solution) into 5 mL culture tubes followed by the addition of 2 µL of Annexin-V-Fluos and 2 µL PI. Camptothecin at a final concentration of 50 nM was used as a positive control. Samples were gently mixed and incubated for 15 min at RT (25 °C) in the dark. Fluorescence of cell surface (AV) and DNA-bound PI markers was analyzed with flow cytometry (Becton–Dickinson, San Jose, CA, USA) at 488 nm excitation wavelength, emission 518 and 617 nm for AV and PI, respectively.

[11] = tested on: A431 cells; experiment: Flow cytometry cell cycle analysis, A431; type: cell-based, human; details: A431, 24 h incubation, PI flow cytometry
Experimental: as §1, with “Control cells were treated with DMSO, at a concentration of less than 0.1%.” left out
(§4) The cells harvested after a 24 h incubation with the test compounds were washed with 1 mL of PBS and fixed with 70% ethanol. […] The stained cells were analyzed by FACSCanto Flow Cytometer (Becton–Dickinson). […]

[12] = tested on: HaCaT cells; experiment: Flow cytometry cell cycle analysis, HaCaT; type: cell-based, human; details: 24 h incubation, PI flow cytometry
Experimental: as §1, with “Control cells were treated with DMSO, at a concentration of less than 0.1%.” left out
as §4

[13] = tested on: MCF7 cells; experiment: Flow cytometry cell cycle analysis, MCF7; type: cell-based, human; details: MCF7, 24 h incubation, PI flow cytometry
Experimental: as §1, §3

T1 sequence (P02554 whole entry): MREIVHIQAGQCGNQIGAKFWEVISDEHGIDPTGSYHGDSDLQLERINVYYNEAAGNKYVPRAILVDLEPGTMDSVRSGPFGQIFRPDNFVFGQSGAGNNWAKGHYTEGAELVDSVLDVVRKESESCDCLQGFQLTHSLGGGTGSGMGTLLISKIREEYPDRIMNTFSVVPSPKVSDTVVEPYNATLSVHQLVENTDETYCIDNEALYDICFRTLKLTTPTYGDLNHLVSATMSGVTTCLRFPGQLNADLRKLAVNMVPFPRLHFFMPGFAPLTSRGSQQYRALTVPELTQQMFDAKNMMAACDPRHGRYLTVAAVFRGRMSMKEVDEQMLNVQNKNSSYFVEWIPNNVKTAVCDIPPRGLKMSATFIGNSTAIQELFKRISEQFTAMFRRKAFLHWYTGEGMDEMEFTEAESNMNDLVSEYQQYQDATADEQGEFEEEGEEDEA
T1 sequence (P02550 whole entry partner): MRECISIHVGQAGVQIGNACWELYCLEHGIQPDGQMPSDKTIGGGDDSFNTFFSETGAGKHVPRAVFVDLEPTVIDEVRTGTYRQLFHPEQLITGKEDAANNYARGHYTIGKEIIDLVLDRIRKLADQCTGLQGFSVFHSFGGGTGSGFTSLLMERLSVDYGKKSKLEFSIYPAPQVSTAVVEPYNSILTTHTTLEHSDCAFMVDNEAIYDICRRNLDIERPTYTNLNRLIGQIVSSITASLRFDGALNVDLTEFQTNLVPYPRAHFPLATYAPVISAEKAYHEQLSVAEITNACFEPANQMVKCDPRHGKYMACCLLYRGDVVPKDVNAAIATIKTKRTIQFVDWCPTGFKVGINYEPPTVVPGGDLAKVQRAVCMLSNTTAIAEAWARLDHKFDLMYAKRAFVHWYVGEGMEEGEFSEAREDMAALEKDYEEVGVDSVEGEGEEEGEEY

| IC50 ([3]; Homo sapiens, MCF7, 48 h) | IC50 [4] | SMILES | Tubulin polymerization, steady state level ([1]; 10 µM compound) | IC50 [2] | Number of TUNEL positive cells [7] | Cell cycle effect [8] | IC50 [9] | Apoptosis induction (Annexin-V/PI) [10] | Cell cycle effect [13] | further results |
| --- | --- | --- | --- | --- | --- | --- | --- | --- | --- | --- |
|  |  | CC(=O)O[C@H]1C(=O)[C@@]2(C)[C@H]([C@H](OC(=O)c3ccccc3)[C@]3(O)C[C@H](OC(=O)[C@H](O)[C@@H](NC(=O)c4ccccc4)c4ccccc4)C(C)=C1C3(C)C)[C@]1(OC(C)=O)CO[C@@H]1C[C@@H]2O [Paclitaxel, reference compound] | 142.3 % of control and 142.3 ± 9.2 % of control |  |  |  |  |  |  |  |
| 27.3 ± 12.4 µM | 241 ± 10 µM | COc1ccccc1/C=C/c1ccc(SC)cc1 [2-Methoxy-4′-methylthio-trans-stilbene] |  | 106 ± 9.3 µM |  |  |  |  |  |  |
| 4.8 ± 3.4 µM | 45.4 ± 7.2 µM | COc1cc(/C=C/c2ccc(SC)cc2)cc(OC)c1 [3,5-Dimethoxy-4′-methylthio-trans-stilbene] |  | 25.4 ± 13.9 µM |  |  |  |  |  |  |
|  |  | COc1ccc(/C=C/c2cc(OC)c(OC)c(OC)c2)cc1 [DMU-212, 3,4,5,4′-trans-tetramethoxystilbene] |  |  |  |  |  |  |  | Toxicity in MCF7 cells [5]: submicromolar toxicity; Effect on microtubule polymerization ([6]; DMU-212 at 2.5 μM versus paclitaxel at 10 μM): comparable to that of paclitaxel |
| 10.2 ± 6.6 µM | 47.1 ± 9 µM | COc1ccc(OC)c(/C=C/c2ccc(SC)cc2)c1 [2,5-Dimethoxy-4′-methylthio-trans-stilbene] |  | 65 ± 24.5 µM |  |  |  |  |  |  |
| 24.6 ± 3.8 µM | 49.4 ± 3.8 µM | Oc1ccc(/C=C/c2cc(O)cc(O)c2)cc1 [Resveratrol, trans-3,4′,5-trihydroxystilbene] |  | 85.2 ± 29.2 µM | statistically significant in all the cell lines studied | blocked the cell cycle in S-phase | 93.5 ± 12.1 µM | apoptosis was evident in all the tested cell lines | blocked the cell cycle in S-phase | Effect on tubulin polymerization [6]: does not influence tubulin polymerization; Cell cycle effect [11]: blocked the cell cycle in S-phase; Cell cycle effect [12]: arrested in G0/G1-phase |
| 2.07 µM | 19.3 ± 5.5 µM | COc1cc(/C=C/c2ccc(SC)cc2)cc(OC)c1OC [3,4,5-MTS, 3,4,5-Trimethoxy-4′-methylthio-trans-stilbene] | 132.9 % of control and 132.9 ± 17.1 % of control | 10 ± 4.6 µM | statistically significant increase in the number of TUNEL positive cells was observed only in HaCaT and A431 | G2/M phase arrest | 25.7 ± 4.3 µM | induced apoptosis in all the cell lines | G2/M phase arrest | IC50 [3]: 2.1 ± 0.4 µM; Cell cycle effect [11]: G2/M phase arrest; Tubulin polymerization, steady state level ([1]; 5 µM compound): 113.4 ± 3.6 % of control |
| 5.1 ± 1.4 µM | 22.6 ± 7.2 µM | COc1cc(OC)c(OC)cc1/C=C/c1ccc(SC)cc1 [2,4,5-MTS, 2,4,5-Trimethoxy-4′-methylthio-trans-stilbene] | 123.2 % of control and 123.2 ± 4.5 % of control | 50.9 ± 13.3 µM | statistically significant increase in the number of TUNEL positive cells was observed only in HaCaT and A431 | G0/G1 phase arrest | 10 ± 3 µM | induced apoptosis in all the cell lines | G0/G1 phase arrest | Tubulin polymerization, steady state level ([1]; 5 µM compound): 106.3 ± 4.2 % of control |
| 6.6 ± 3.7 µM | 141 ± 2.8 µM | COc1cccc(/C=C/c2ccc(SC)cc2)c1 [3-Methoxy-4′-methylthio-trans-stilbene] |  | 183 ± 38.7 µM |  |  |  |  |  |  |
| 10.6 ± 6.1 µM | 157 ± 3 µM | COc1cccc(/C=C/c2ccc(SC)cc2)c1OC [2,3-Dimethoxy-4′-methylthio-trans-stilbene] |  | 51.8 ± 7.3 µM |  |  |  |  |  |  |
